Test results published in patent publication US7550455B2, “8-(piperazin-1yl)- and 8-([1,4]diazepan-1yl)-xanthines, the preparation thereof and their use as pharmaceutical composition” (Boehringer Ingelheim International GmbH, priority 2003, dated 2009).

How the values were obtained:
DPP-IV = biological target: T1, DPP-IV (Homo sapiens, UniProt P27487); assay: DPP-IV assay with Caco-2 cell extract as DPP-IV source; type: biochemical; conditions: extract of human colon carcinoma cell line Caco-2, AFC substrate 100 μM, 60 minutes, room temperature; read-out: DPP IV inhibition IC50
T1 construct: The cell extract was obtained from the cells solubilized in a buffer; endogenous in cells; host or cells: Caco-2 (human colon carcinoma), differentiated to induce DPP-IV expression; Nonidet-P40 solubilized extract
Procedure: The ability of the substances and their corresponding salts to inhibit DPP-IV activity can be shown in a test set-up in which an extract of the human colon carcinoma cell line Caco-2 is utilized as the DPP-IV source. […] The cell extract was obtained from the cells solubilized in a buffer (10 mM tris HCl, 0.15 M NaCl, 0.04 t.i.u. aprotinin, 0.5% Nonidet-P40, pH 8.0) by centrifugation at 35000 g for 30 minutes at 4° C. (for the removal of cell debris).
The DPP-IV assay was carried out as follows:
50 μl of substrate solution (AFC; AFC is amido-4-trifluoromethylcoumarin), final concentration 100 μM, were introduced into black microtitre plates. 20 μl of assay buffer (final concentrations 50 mM tris HCl pH 7.8, 50 mM NaCl, 1% DMSO) were pipetted in. The reaction was started by addition of 30 μl of solubilized Caco-2 protein (final concentration 0.14 μg of protein per well). […] The reaction was carried out at room temperature; the incubation period was 60 minutes. […] Blank values (corresponding to 0% activity) were obtained in batches without Caco-2 protein (volumes replaced by assay buffer), control values (corresponding to 100% activity) were obtained in batches without addition of substance. […]

rats = assay: Tolerability after oral administration to rats (behaviour); type: in vivo; conditions: oral administration of 10 mg/kg

T1 sequence (P27487 whole entry): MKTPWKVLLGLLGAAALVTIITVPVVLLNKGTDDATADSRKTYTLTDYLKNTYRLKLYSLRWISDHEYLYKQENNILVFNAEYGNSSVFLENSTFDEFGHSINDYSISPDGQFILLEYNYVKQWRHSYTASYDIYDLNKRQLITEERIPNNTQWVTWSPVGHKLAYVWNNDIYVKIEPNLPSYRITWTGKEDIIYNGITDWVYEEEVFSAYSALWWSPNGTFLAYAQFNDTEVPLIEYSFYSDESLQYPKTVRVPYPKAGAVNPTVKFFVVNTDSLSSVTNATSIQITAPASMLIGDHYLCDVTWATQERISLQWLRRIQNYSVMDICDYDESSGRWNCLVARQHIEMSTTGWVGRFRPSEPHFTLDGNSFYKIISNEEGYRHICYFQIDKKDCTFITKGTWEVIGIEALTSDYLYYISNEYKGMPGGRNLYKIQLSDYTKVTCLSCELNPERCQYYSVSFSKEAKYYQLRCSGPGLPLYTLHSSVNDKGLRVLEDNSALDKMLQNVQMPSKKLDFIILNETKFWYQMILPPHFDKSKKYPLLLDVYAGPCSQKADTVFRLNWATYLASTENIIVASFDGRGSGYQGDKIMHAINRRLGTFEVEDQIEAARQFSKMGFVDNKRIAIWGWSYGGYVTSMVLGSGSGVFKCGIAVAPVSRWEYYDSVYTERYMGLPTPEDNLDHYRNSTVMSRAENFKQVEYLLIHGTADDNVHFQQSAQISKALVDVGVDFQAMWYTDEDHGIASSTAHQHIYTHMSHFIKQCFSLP

Row | IC50 (DPP-IV) [nM] | melting point [°C] | Compound | changes in the behaviour of the animals (rats)
1 | 17 | – | CC#CCn1c(N2CCNCC2)nc2c1c(=O)n(Cc1nc(C)cc3ccccc13)c(=O)n2C [1(1), 1-[(3-Methylisoquinolin-1-yl)methyl]-3-methyl-7-(2-butyn-1-yl)-8-(piperazin-1-yl)-xanthine] | –
2 | – | 223 to 225 | CC#CCn1c(N2CCCNCC2)nc2c1c(=O)n(Cc1nc3ccccc3c3ccccc13)c(=O)n2C [Example 1(5), 1-[(Phenanthridin-6-yl)methyl]-3-methyl-7-(2-butyn-1-yl)-8-([1,4]diazepan-1-yl)-xanthine] | –
3 | – | – | CC#CCn1c(N2CCNCC2)nc2c1c(=O)n(Cc1nc(C)c3ccccc3n1)c(=O)n2C [Example 1, 1-[(4-Methylquinazolin-2-yl)methyl]-3-methyl-7-(2-butyn-1-yl)-8-(piperazin-1-yl)-xanthine] | not possible to observe any changes in the behaviour of the animals
4 | 9 | – | CC#CCn1c(N2CCCNCC2)nc2c1c(=O)n(Cc1nc(C)cc3ccccc13)c(=O)n2C [1(2), 1-[(3-Methylisoquinolin-1-yl)methyl]-3-methyl-7-(2-butyn-1-yl)-8-([1,4]diazepan-1-yl)xanthine] | –
5 | 6 | 188 to 190 | CC#CCn1c(N2CCCNCC2)nc2c1c(=O)n(Cc1nc(C)c3ccccc3n1)c(=O)n2C [1(3), 1-[(4-Methylquinazolin-2-yl)methyl]-3-methyl-7-(2-butyn-1-yl)-8-([1,4]diazepan-1-yl)xanthine] | –
